Test results reported in US4105785A, “Anti-depressive 2-methyl-4-[(3'-dimethylamino)propylidine]-9,10-dihydrobenzo [4,5]cyclohepta[1,2b]furan compounds” (priority 1976, dated 1978).

How the values were obtained:
[1] = tested on: reserpine-induced hypothermia; experiment: Antagonism to reserpine-induced hypothermia; type: in vivo; conditions: mouse; for HYPOTHERMIA (Reserpine), maximal rise in temperature: reserpine 1 mg/kg IV
Protocol: (2) Antagonism to reserpine-induced hypothermia Administration of reserpine to the mouse (1 mg/kg IV) results in hypothermia which may be antagonized by certain anti-depressants. The values given in table I correspond, for the doses given, to the maximal rise in temperature. [Boissier et al., Therapie 1966, XXI, 109-117]

spontaneous motility = experiment: Spontaneous motility in the mouse; type: in vivo; conditions: 1 hour after administration, 10 minutes
Protocol: (6) Spontaneous motility in the mouse One hour after the administration of the product to be studied, the animals are placed by groups of two in a circular corridor swept by beams of infrared light making it possible to count their movements from one place to another. The number of movements from one place to another is counted for 10 minutes and compared with the score obtained by a control group.

[2] = tested on: catalepsy induced by prochlorperazine; experiment: antagonism to catalepsy induced by prochlorperazine in the rat; type: in vivo
Source text: (3) antagonism to catalepsy induced by prochlorperazine in the rat. Injection of prochlorperazine in the rat induces a cataleptic state which is more or less inhibited by antidepressants. The values given in table I show percentages of inhibition. [Boissier J. R. and Simon P., Therapie (1963), 18, 1257-77]

[3] = tested on: heat stimulus (hot plate); experiment: Analgesic activity, hot plate method; type: in vivo; conditions: mouse; for ED50: PO, 50% of animals exposed to heat stimulus longer than 5 seconds, read-out: ANALGESIA ED 50
Protocol: (7) Analgesic activity This was assessed on the mouse by the hot plate method. […] [Eddy N. B. and Leimbach D. J., Pharmacol. Exp. Ther., 107, 385-393 (1953)]

[4] = tested on: symptoms of trembling induced by oxotremorine; experiment: Antioxotremoric action in the mouse; type: in vivo; conditions: 100 mg/kg PO, oxotremorine 2 mg/kg IP
[5] = acute toxicity by the oral way in the mouse; conditions: in vivo; for LD50: PO; for mortality: 600 mg/kg PO, read-out: acute toxicity, deaths
Protocol: (1) acute toxicity by the oral way in the mouse
This was evaluated in the mouse by the method of Behrens and Karber [Arch. Exp. Path. Pharm. 177, 379 (1935)]

[6] = tested on: stereotypies induced by amphetamine; experiment: Potentialization of stereotypies induced by amphetamine in the rat; type: in vivo; conditions: D-amphetamine 4 mg/kg IP
Protocol: (4) Potentialization of stereotypies induced by amphetamine in the rat.
The administration of D-amphetamine to the rat (4 mg/kg IP) results in stereotyped behaviour which can be potentialized or antogonized by various products.
The values given in table I show the percentage of potentialization. [Lapin I. P. and Schelkunov E. L. (1963) Second International Pharmacological Meeting 1, 205 Pergamon Press].

Row | Compound | HYPOTHERMIA (Reserpine), maximal rise in temperature ([1]; 50 mg/kg PO) | SPONTANEOUS MOTILITY, percentage of decrease in number of movements (spontaneous motility; 80 mg/kg PO) [%] | CATALEPSY (Prochlorperazine), percentage of inhibition ([2]; 20 mg/kg IP) | ED50 [3] [mg/kg] | ANTI-OXOTREMORIC ACTION, percentage of inhibition of trembling symptoms [4] [%] | LD50 [5] [mg/kg] | STEREOTYPIES (Amphetamine), percentage of potentialization ([6]; 20 mg/kg PO) | HYPOTHERMIA (Reserpine), maximal rise in temperature ([1]; 12.5 mg/kg PO) | SPONTANEOUS MOTILITY, percentage of decrease in number of movements (spontaneous motility; 100 mg/kg PO) [%] | mortality [5] [%] | STEREOTYPIES (Amphetamine), percentage of potentialization ([6]; 5 mg/kg IP) | HYPOTHERMIA (Reserpine), maximal rise in temperature ([1]; 25 mg/kg PO) | action on reserpine-induced hypothermy (in words) [1] | CATALEPSY (Prochlorperazine), percentage of inhibition ([2]; 40 mg/kg IP) [%] | ANALGESIA (result in words) [3]
1 | CN(C)CCC=C1c2ccccc2CCc2ccccc21 [AMITRIPTYLINE, reference compound] | +2.5 °C | 80 | -33,3% | 16 | -100 | 250 | +65% |  |  |  |  |  |  |  | 
2 | Cc1ccc2c(c1)CCc1oc(C)cc1C2=CCCN(C)C [compound no. 1, dimethyl-2,7 [(dimethylamino-3')propylidene]-4 dihydro-9,10 benzo-[4,5] cyclohepta [1,2-b] furan] |  |  | -26.1% | 48 | -35 |  |  | +1 °C | 95.3 | 10 | +105% |  |  |  | 
3 | Cc1ccc2c(c1)C(=CCCN(C)C)c1cc(C)oc1CC2 [compound no. 2, dimethyl-2,6 [(dimethylamino-3')]-propylidene-4 dihydro-9,10 benzo [4,5] cyclohepta [1,2-b] furan] |  |  | -44.4% | 47 | -30 |  |  |  | 84.4 | 10 | +141% | +0.6 °C |  |  | 
4 | Cc1cc2c(o1)CCc1ccccc1C2=CCCN(C)C [compound no. 3, methyl-2 [(dimethylamino-3')-propylidene]-4 dihydro-9,10 benzo-[4,5] cyclohepta [1,2-b] furan] | +3 °C |  |  |  | -75 | 300 |  |  | 84 |  | +9,2% |  | significant action | -33.3 | non specific
